From patent US8354394B2, “Diuretics” (Merck Sharp & Dohme Corp., priority 2009, dated 2013)

System: beagle dogs
Experiment: canine telemetry protocol for blood pressure reduction efficacy
Format: in vivo
Conditions: male beagle dogs, 3 mg/kg oral gavage
Method: Compounds of the invention were evaluated for blood pressure reduction efficacy using the following canine telemetry protocol.
Male beagle dogs (approximately 1-3 years old) with a body weight of between 10 and 16 kg were surgically implanted with DSI radiotelemetry devices (model: TL11M2-D70-PCT). Briefly, under an inhalant anesthesia, isoflurane/oxygen mixture (1-3.5%/to effect), the body of the telemetry device was positioned and secured intra-abdominally. Subsequently, the arterial catheter of the telemetry device was passed subcutaneously to the inguinal area and introduced into the femoral artery and advanced to the level of the descending aorta. The catheter was secured with 2-0 silk ligatures. The muscle and underlying fascia was closed over the catheter using absorbable suture and the skin was closed using non-absorbable suture. The animals were allowed a minimum recovery period of 2 weeks between surgery and the evaluation of test compounds.
Compound evaluation consisted of a 3 day paradigm at a 3 mg/kg dose. On the first day, no compounds were administered during a 24 hour period of baseline data collection. Blood pressure and heart rate data were collected continuously for one minute periods at 10 minute intervals. On the days of compound administration half the animals received test article with the other half receiving the vehicle used for compound formulation. All test materials were administered by oral gavage in a volume of 1 mL/kg. Data are expressed either as raw values (mm Hg or beats per minute) or as the change from baseline (average value for about 12 hours in low activity period prior to dosing). Change is SBP (systolic blood pressure) and PP (pulse pressure) over time is shown below: […]

Structure (SMILES) | ΔPP (pulse pressure, change from baseline) 1-6 h [mm Hg] | ΔSBP (systolic blood pressure, change from baseline) 1-6 h [mm Hg] | ΔPP (pulse pressure, change from baseline) 6-12 h [mm Hg] | ΔSBP (systolic blood pressure, change from baseline) 6-12 h [mm Hg] | ΔPP (pulse pressure, change from baseline) 12-18 h [mm Hg] | ΔSBP (systolic blood pressure, change from baseline) 12-18 h [mm Hg]
Cc1ncc2c(c1OC(=O)CCC(C)CO/N=[N+](\[O-])N(C)C(C)(C)C)CO[C@H]2c1ccc(Cl)cc1 (stereo partly drawn) [Example 13, (3S)-3-(4-Chlorophenyl)-6-methyl-1,3-dihydrofuro[3,4-c]pyridin-7-yl 5-({[(1Z)-2-tert-butyl-2-methyl-1-oxido-1λ^5-diazan-1-ylidene]amino}oxy)-4-methylpentanoate] | −22 | −30 | −11 | −15 | −6 | −4
Cc1ncc2c(c1OC(=O)CCCC(C)O/N=[N+](\[O-])N(C)C(C)(C)C)CO[C@H]2c1ccc(Cl)cc1 (stereo partly drawn) [Example 14, (3S)-3-(4-Chlorophenyl)-6-methyl-1,3-dihydrofuro[3,4-c]pyridin-7-yl 5-({[(1Z)-2-tert-butyl-2-methyl-1-oxido-1λ^5-diazan-1-ylidene]amino}oxy)hexanoate] | −18 | −21 | −9 | −8 | −3 | 3
Cc1ncc2c(c1OC(=O)[C@H]1CC[C@H](O/N=[N+](\[O-])N(C)C(C)(C)C)CC1)CO[C@H]2c1ccc(Cl)cc1 [Example 6, (3S)-3-(4-Chlorophenyl)-6-methyl-1,3-dihydrofuro[3,4-c]pyridin-7-yl trans-4-({[(1Z)-2-tert-butyl-2-methyl-1-oxidohydrazono]amino}oxy)cyclohexanecarboxylate] | −16 | −16 | −7 | −6 | −3 | −1
Cc1ncc2c(c1OC(=O)O[C@@H](C)CCCCO/N=[N+](\[O-])N(C)C(C)(C)C)CO[C@H]2c1ccc(Cl)cc1 [Example 25, (2S)-6-({[(1Z)-2-tert-butyl-2-methyl-1-oxido-1λ^5-diazan-1-ylidene]amino}oxy)hexan-2-yl (3 S) 3-(4-chlorophenyl)-6-methyl-1,3-dihydrofuro[3,4-c]pyridin-7-yl carbonate] | −12 | −14 | −7 | −7 | −4 | 0
Cc1ncc2c(c1OC(=O)[C@H]1CC[C@@H](O/N=[N+](\[O-])N(C)C(C)(C)C)CC1)CO[C@H]2c1ccc(Cl)cc1 [Example 5, (3S)-3-(4-Chlorophenyl)-6-methyl-1,3-dihydrofuro[3,4-c]pyridin-7-yl cis-4-({[(1Z)-2-tert-butyl-2-methyl-1-oxidohydrazono]amino}oxy)cyclohexanecarboxylate] | −10 | −11 | −3 | −2 | 1 | 2
Cc1ncc2c(c1OC(=O)CCCCO/N=[N+](\[O-])N(C)C(C)(C)C)CO[C@H]2c1ccc(Cl)cc1 [Example 8, (3S)-3-(4-Chlorophenyl)-6-methyl-1,3-dihydrofuro[3,4-c]pyridin-7-yl 5-({[(1Z)-2-tert-butyl-2-methyl-1-oxido-1λ^5-diazan-1-ylidene]amino}oxy)pentanoate] | −12 | −15 | −8 | −12 | −4 | −2
